Where “and” joins values, the source holds several entries; their conditions need not be identical. Equal values may be shown once.

Data set [1] has as its system 3′-CGGACAAGAAG-5′ (complementary DNA strand). Nature of the data set: Thermo-denaturation (UV-melting, 260 nm) of non-self-complementary DNA duplex. The format is physicochemical. Particulars: for average Tm (melting temperature) of the duplex: duplex 5′-C(2′-TeX-dU)TCTTGTCCG-3′ & 3′-CGGACAAGAAG-5′, four measurements, 50 mM NaCl, 10 mM phosphate pH 6.5, 0.1 mM EDTA, 10 mM MgCl2, 0.5° C./min. As to the method:
(§1) Solution of the duplex DNA (2 uM) was prepared by dissolving the DNAs in a buffer containing 50 mM NaCl, 10 mM NaH2PO4—Na2HPO4 (pH 6.5), 0.1 mM EDTA and 10 mM MgCl2. The solution was heated to 70° C. for 2 min and cooled slowly to room temperature, followed by storing at 4° C. for overnight before measurement. The Tm curves were acquired at 260 nm by heating the samples from 5 to 70° C. at a rate of 0.5° C./min using Cary 300 UV-Visible Spectrophotometer with a temperature controller. […] The samples (1 mM duplex) were heated from 6 to 75° C. with a rate of 0.5° C./min. The red, blue and green curves represent the native, 2′-TeMe and 2′-TePh duplex, respectively, and are labelled in FIG. 6. The average Tm (four measurements) for each duplex is: 44.0±0.1° C. (native), 40.7±0.1° C. (2′-TeMe) and 36.8±0.2° C. (2′-TePh). […] The samples (1 mM duplex) were heated from 6 to 70° C. with a rate of 0.5° C./min. The circle (red), diamond (blue) and hexagon (purple) curves represent the native, 2′-TeMe and 2′-TePh DNA duplexes, respectively, with the averaged Tm (four times): 39.4° C. (native), 28.6° C. (2′-TeMe) and 23.4° C. (2′-TePh).

Data set [2] relates to self-complementary duplex [5′-G(2′-TeX-dU)GTACAC-3′]2. In words: Thermo-denaturation (UV-melting, 260 nm) of self-complementary DNA duplex. The format is physicochemical. As to conditions: for averaged Tm of the duplex: self-complementary 8-mer 5′-G(2′-TeX-dU)GTACAC-3′, two modifications per duplex, four times, 0.5° C./min; for Tm decrease per modification: self-complementary duplex [5′-G(2′-TeX-dU)GTACAC-3′]2, compared with native; for Tm decrease compared with the native duplex: self-complementary duplex [5′-G(2′-TeX-dU)GTACAC-3′]2, double Te-modification. How it is done: as §1

Turning to “5′-C(2′-TeX-dU)TCTTGTCCG-3′&3′-CGGACAAGAAG-5′ [native duplex, reference compound]”, in data set [1], the “average Tm (melting temperature) of the duplex” value (“average Tm (melting temperature)” for short) was 44.0±0.1 °C and 44.0 °C.

As for “[5′-G(2′-TeX-dU)GTACAC-3′, X=Ph or Me]2 [2′-TeMe DNA duplex]”, in data set [2], the “averaged Tm of the duplex” value amounted to 28.6 °C, the “Tm decrease per modification” value worked out at 5.0 °C and the “Tm decrease compared with the native duplex” value turned out to be 10 °C.

Consider “5′-C(2′-TeX-dU)TCTTGTCCG-3′&3′-CGGACAAGAAG-5′ [2′-TePh duplex]”, for which the “average Tm (melting temperature)” value in data set [1] is 36.8±0.2 °C and 36.8 °C.

“5′-C(2′-TeX-dU)TCTTGTCCG-3′&3′-CGGACAAGAAG-5′ [2′-TeMe duplex]”: the “average Tm (melting temperature)” value in data set [1] was 40.7±0.1 °C and 40.7 °C. Besides, in data set [1] (non-self-complementary duplex 5′-C(2′-TeX-dU)TCTTGTCCG-3′ and 5′-CGGACAAGA-AG-3′), the “difference in melting temperature between native and modified DNA” value turned out to be 3.3 °C.

Consider “[5′-G(2′-TeX-dU)GTACAC-3′, X=Ph or Me]2 [2′-TePh DNA duplex]”, for which, in data set [2], the “averaged Tm of the duplex” value was found to be 23.4 °C, the “Tm decrease per modification” value is 7.5 °C and the “Tm decrease compared with the native duplex” value was 15 °C.

The values above are taken from US8691972B2, “Compounds and synthesis of tellurium-derivatized oligonucleotides for structural and functional studies” (priority 2009, dated 2014).
